ChEMBL document CHEMBL5634115, “Exploring novel anticancer pyrazole benzenesulfonamides featuring tail approach strategy as carbonic anhydrase inhibitors” (Eur J Med Chem, 2023)

Experiments:
Experiment in all cases: cells
MOLT-4 [1] = format: functional; conditions: Homo sapiens, time 48 hrs
Description: Cytostatic activity against human MOLT-4 cells assessed as total growth inhibition measured after 48 hrs by sulforhodamine B assay

MCF7 [2] = format: functional; conditions: Homo sapiens, time 48 hrs
Description: Growth inhibition of human MCF7 cells measured after 48 hrs by sulforhodamine B assay

SR [3] = conditions: Homo sapiens, 48 h, read-out: LC50
Description: Cytotoxicity activity against human SR cells assessed as reduction in cell growth measured after 48 hrs by sulforhodamine B assay

UACC-62 [4] = format: functional; conditions: Homo sapiens, time 48 hrs
Description: Growth inhibition of human UACC-62 cells measured after 48 hrs by sulforhodamine B assay

OVCAR-4 = format: functional; conditions: Homo sapiens, time 48 hrs
Description: Cytostatic activity against human OVCAR-4 cells assessed as total growth inhibition measured after 48 hrs by sulforhodamine B assay

OVCAR-5 [5] = format: functional; conditions: Homo sapiens, time 48 hrs
Description: Cytostatic activity against human OVCAR-5 cells assessed as total growth inhibition measured after 48 hrs by sulforhodamine B assay

CAKI-1 = conditions: Homo sapiens, CAKI-1, 48 h, read-out: LC50
Description: Cytotoxicity activity against human CAKI-1 cells assessed as reduction in cell growth measured after 48 hrs by sulforhodamine B assay

NCI-H23 [6] = conditions: Homo sapiens, NCI-H23, 48 h, read-out: LC50
Description: Cytotoxicity activity against human NCI-H23 cells assessed as reduction in cell growth measured after 48 hrs by sulforhodamine B assay

HOP-62 = format: functional; conditions: Homo sapiens, time 48 hrs
Description: Cytostatic activity against human HOP-62 cells assessed as total growth inhibition measured after 48 hrs by sulforhodamine B assay

SF-295 = conditions: Homo sapiens, SF-295, 48 h, read-out: LC50
Description: Cytotoxicity activity against human SF-295 cells assessed as reduction in cell growth measured after 48 hrs by sulforhodamine B assay

SW-620 = conditions: Homo sapiens, SW-620, 48 h, read-out: LC50
Description: Cytotoxicity activity against human SW620 cells assessed as reduction in cell growth measured after 48 hrs by sulforhodamine B assay

SF-268 = format: functional; conditions: Homo sapiens, time 48 hrs
Description: Cytostatic activity against human SF-268 cells assessed as total growth inhibition measured after 48 hrs by sulforhodamine B assay

SF-539 [7] = format: functional; conditions: Homo sapiens, time 48 hrs
Description: Cytostatic activity against human SF-539 cells assessed as total growth inhibition measured after 48 hrs by sulforhodamine B assay

U-251 [8] = format: functional; conditions: Homo sapiens, time 48 hrs
Description: Cytostatic activity against human U-251 cells assessed as total growth inhibition measured after 48 hrs by sulforhodamine B assay

LOX IMVI = format: functional; conditions: Homo sapiens, time 48 hrs
Description: Cytostatic activity against human LOX IMVI cells assessed as total growth inhibition measured after 48 hrs by sulforhodamine B assay

IGROV-1 [9] = format: functional; conditions: Homo sapiens, time 48 hrs
Description: Growth inhibition of human IGROV-1 cells measured after 48 hrs by sulforhodamine B assay

BT-549 [10] = format: functional; conditions: Homo sapiens, time 48 hrs
Description: Growth inhibition of human BT-549 cells measured after 48 hrs by sulforhodamine B assay

M14 [11] = format: functional; conditions: Homo sapiens, time 48 hrs
Description: Growth inhibition of human M14 cells measured after 48 hrs by sulforhodamine B assay

MCF7 [12] = format: functional; conditions: Homo sapiens, time 48 hrs; remark: listed apart in the source
Description: Cytostatic activity against human MCF7 cells assessed as total growth inhibition measured after 48 hrs by sulforhodamine B assay

RXF 393 = format: functional; conditions: Homo sapiens, time 48 hrs
Description: Growth inhibition of human RXF 393 cells measured after 48 hrs by sulforhodamine B assay

MDA-MB-231 [13] = format: functional; conditions: Homo sapiens, time 48 hrs
Description: Cytostatic activity against human MDA-MB-231 cells assessed as total growth inhibition measured after 48 hrs by sulforhodamine B assay

NCI-H23 [14] = format: functional; conditions: Homo sapiens, time 48 hrs
Description: Cytostatic activity against human NCI-H23 cells assessed as total growth inhibition measured after 48 hrs by sulforhodamine B assay

SNB-75 = format: functional; conditions: Homo sapiens, time 48 hrs
Description: Growth inhibition of human SNB-75 cells measured after 48 hrs by sulforhodamine B assay

A549 [15] = conditions: Homo sapiens, A549, 48 h, read-out: LC50
Description: Cytotoxicity activity against human A549 cells assessed as reduction in cell growth measured after 48 hrs by sulforhodamine B assay

SK-MEL-28 = format: functional; conditions: Homo sapiens, time 48 hrs
Description: Growth inhibition of human SK-MEL-28 cells measured after 48 hrs by sulforhodamine B assay

Malme-3M [16] = conditions: Homo sapiens, 48 h, read-out: LC50
Description: Cytotoxicity activity against human Malme-3M cells assessed as reduction in cell growth measured after 48 hrs by sulforhodamine B assay

U-251 [17] = conditions: Homo sapiens, U-251, 48 h, read-out: LC50
Description: Cytotoxicity activity against human U-251 cells assessed as reduction in cell growth measured after 48 hrs by sulforhodamine B assay

MCF7 [18] = conditions: Homo sapiens, MCF7, 48 h, read-out: LC50
Description: Cytotoxicity activity against human MCF7 cells assessed as reduction in cell growth measured after 48 hrs by sulforhodamine B assay

M14 [19] = format: functional; conditions: Homo sapiens, time 48 hrs; remark: listed apart in the source
Description: Cytostatic activity against human M14 cells assessed as total growth inhibition measured after 48 hrs by sulforhodamine B assay

SK-MEL-2 = format: functional; conditions: Homo sapiens, time 48 hrs
Description: Growth inhibition of human SK-MEL-2 cells measured after 48 hrs by sulforhodamine B assay

IGROV-1 [20] = conditions: Homo sapiens, IGROV-1, 48 h, read-out: LC50
Description: Cytotoxicity activity against human IGROV-1 cells assessed as reduction in cell growth measured after 48 hrs by sulforhodamine B assay

KM12 = conditions: Homo sapiens, KM12, 48 h, read-out: LC50
Description: Cytotoxicity activity against human KM12 cells assessed as reduction in cell growth measured after 48 hrs by sulforhodamine B assay

CCRF-CEM [21] = format: functional; conditions: Homo sapiens, time 48 hrs
Description: Growth inhibition of human CCRF-CEM cells measured after 48 hrs by sulforhodamine B assay

OVCAR-5 [22] = format: functional; conditions: Homo sapiens, time 48 hrs; remark: listed apart in the source
Description: Growth inhibition of human OVCAR-5 cells measured after 48 hrs by sulforhodamine B assay

786-0 [23] = format: functional; conditions: Homo sapiens, time 48 hrs
Description: Cytostatic activity against human 786-0 cells assessed as total growth inhibition measured after 48 hrs by sulforhodamine B assay

MOLT-4 [24] = conditions: Homo sapiens, MOLT-4, 48 h, read-out: LC50
Description: Cytotoxicity activity against human MOLT-4 cells assessed as reduction in cell growth measured after 48 hrs by sulforhodamine B assay

EKVX = format: functional; conditions: Homo sapiens, time 48 hrs
Description: Growth inhibition of human EKVX cells measured after 48 hrs by sulforhodamine B assay

IGROV-1 [25] = format: functional; conditions: Homo sapiens, time 48 hrs; remark: listed apart in the source
Description: Cytostatic activity against human IGROV-1 cells assessed as total growth inhibition measured after 48 hrs by sulforhodamine B assay

SR [26] = format: functional; conditions: Homo sapiens, time 48 hrs
Description: Growth inhibition of human SR cells measured after 48 hrs by sulforhodamine B assay

RPMI-8226 = conditions: Homo sapiens, RPMI-8226, 48 h, read-out: LC50
Description: Cytotoxicity activity against human RPMI-8226 cells assessed as reduction in cell growth measured after 48 hrs by sulforhodamine B assay

Hs-578T = format: functional; conditions: Homo sapiens, time 48 hrs
Description: Growth inhibition of human Hs-578T cells measured after 48 hrs by sulforhodamine B assay

NCI/ADR-RES = format: functional; conditions: Homo sapiens, time 48 hrs
Description: Growth inhibition of human NCI/ADR-RES cells measured after 48 hrs by sulforhodamine B assay

ACHN = format: functional; conditions: Homo sapiens, time 48 hrs
Description: Cytostatic activity against human ACHN cells assessed as total growth inhibition measured after 48 hrs by sulforhodamine B assay

HL-60(TB) = format: functional; conditions: Homo sapiens, time 48 hrs
Description: Cytostatic activity against human HL-60(TB) cells assessed as total growth inhibition measured after 48 hrs by sulforhodamine B assay

UO-31 = format: functional; conditions: Homo sapiens, time 48 hrs
Description: Growth inhibition of human UO-31 cells measured after 48 hrs by sulforhodamine B assay

A549 [27] = format: functional; conditions: Homo sapiens, time 48 hrs
Description: Growth inhibition of human A549 cells measured after 48 hrs by sulforhodamine B assay

NCI-H460 = format: functional; conditions: Homo sapiens, time 48 hrs
Description: Growth inhibition of human NCI-H460 cells measured after 48 hrs by sulforhodamine B assay

MOLT-4 [28] = format: functional; conditions: Homo sapiens, time 48 hrs; remark: listed apart in the source
Description: Growth inhibition of human MOLT-4 cells measured after 48 hrs by sulforhodamine B assay

786-0 [29] = conditions: Homo sapiens, 786-0, 48 h, read-out: LC50
Description: Cytotoxicity activity against human 786-0 cells assessed as reduction in cell growth measured after 48 hrs by sulforhodamine B assay

CCRF-CEM [30] = conditions: Homo sapiens, 48 h, read-out: LC50
Description: Cytotoxicity activity against human CCRF-CEM cells assessed as reduction in cell growth measured after 48 hrs by sulforhodamine B assay

OVCAR-3 = format: functional; conditions: Homo sapiens, time 48 hrs
Description: Growth inhibition of human OVCAR-3 cells measured after 48 hrs by sulforhodamine B assay

MDA-MB-231 [31] = format: functional; conditions: Homo sapiens, time 48 hrs; remark: listed apart in the source
Description: Growth inhibition of human MDA-MB-231 cells measured after 48 hrs by sulforhodamine B assay

UACC-257 = format: functional; conditions: Homo sapiens, time 48 hrs
Description: Cytostatic activity against human UACC-257 cells assessed as total growth inhibition measured after 48 hrs by sulforhodamine B assay

SR [32] = format: functional; conditions: Homo sapiens, time 48 hrs; remark: listed apart in the source
Description: Cytostatic activity against human SR cells assessed as total growth inhibition measured after 48 hrs by sulforhodamine B assay

HCT-116 = format: functional; conditions: Homo sapiens, time 48 hrs
Description: Cytostatic activity against human HCT-116 cells assessed as total growth inhibition measured after 48 hrs by sulforhodamine B assay

OVCAR-8 = format: functional; conditions: Homo sapiens, time 48 hrs
Description: Cytostatic activity against human OVCAR-8 cells assessed as total growth inhibition measured after 48 hrs by sulforhodamine B assay

SN12C = format: functional; conditions: Homo sapiens, time 48 hrs
Description: Growth inhibition of human SN12C cells measured after 48 hrs by sulforhodamine B assay

Malme-3M [33] = format: functional; conditions: Homo sapiens, time 48 hrs
Description: Cytostatic activity against human Malme-3M cells assessed as total growth inhibition measured after 48 hrs by sulforhodamine B assay

UACC-62 [34] = format: functional; conditions: Homo sapiens, time 48 hrs; remark: listed apart in the source
Description: Cytostatic activity against human UACC-62 cells assessed as total growth inhibition measured after 48 hrs by sulforhodamine B assay

SK-MEL-5 = format: functional; conditions: Homo sapiens, time 48 hrs
Description: Cytostatic activity against human SK-MEL-5 cells assessed as total growth inhibition measured after 48 hrs by sulforhodamine B assay

UACC-62 [35] = conditions: Homo sapiens, UACC-62, 48 h, read-out: LC50
Description: Cytotoxicity activity against human UACC-62 cells assessed as reduction in cell growth measured after 48 hrs by sulforhodamine B assay

BT-549 [36] = conditions: Homo sapiens, BT-549, 48 h, read-out: LC50
Description: Cytotoxicity activity against human BT-549 cells assessed as reduction in cell growth measured after 48 hrs by sulforhodamine B assay

SF-539 [37] = conditions: Homo sapiens, SF-539, 48 h, read-out: LC50
Description: Cytotoxicity activity against human SF-539 cells assessed as reduction in cell growth measured after 48 hrs by sulforhodamine B assay

CCOC(=O)c1ccc(N/N=C/c2cn(-c3ccc(S(N)(=O)=O)cc3)nc2-c2ccc(C)cc2)cc1
TGI (MOLT-4 [1]): 11.5 µM
GI50 (MCF7 [2]): 2.44 µM
CC50 (SR [3]): > 100 µM
GI50 (UACC-62 [4]): 5.66 µM
TGI (OVCAR-4): 71.5 µM
TGI (OVCAR-5 [5]): 20 µM
CC50 (CAKI-1): > 100 µM
CC50 (NCI-H23 [6]): 94.5 µM
TGI (HOP-62): 6.55 µM
CC50 (SF-295): 74.3 µM
CC50 (SW-620): > 100 µM
TGI (SF-268): 34.2 µM
TGI (SF-539 [7]): 8.03 µM
TGI (U-251 [8]): > 100 µM
TGI (LOX IMVI): 3.15 µM
GI50 (IGROV-1 [9]): 5.13 µM
GI50 (BT-549 [10]): 10.8 µM
GI50 (M14 [11]): 1.75 µM
TGI (MCF7 [12]): 7.77 µM
GI50 (RXF 393): 1.97 µM
TGI (MDA-MB-231 [13]): 9.13 µM
TGI (NCI-H23 [14]): 3.26 µM
GI50 (SNB-75): 10.1 µM
CC50 (A549 [15]): > 100 µM
GI50 (SK-MEL-28): 4.5 µM
CC50 (Malme-3M [16]): 62.5 µM
CC50 (U-251 [17]): > 100 µM
CC50 (MCF7 [18]): > 100 µM
TGI (M14 [19]): 3.57 µM
GI50 (SK-MEL-2): 11.8 µM
CC50 (IGROV-1 [20]): > 100 µM
CC50 (KM12): 10.6 µM
GI50 (CCRF-CEM [21]): 3.82 µM
GI50 (OVCAR-5 [22]): 4.29 µM
TGI (786-0 [23]): 5.74 µM
CC50 (MOLT-4 [24]): > 100 µM
GI50 (EKVX): 3.17 µM
TGI (IGROV-1 [25]): 25.9 µM
GI50 (SR [26]): 2.65 µM
CC50 (RPMI-8226): > 100 µM
GI50 (Hs-578T): 2.76 µM
GI50 (NCI/ADR-RES): 2.94 µM
TGI (ACHN): 24.3 µM
TGI (HL-60(TB)): 14.1 µM
GI50 (UO-31): 2.71 µM
GI50 (A549 [27]): 4.07 µM
GI50 (NCI-H460): 2.43 µM
GI50 (MOLT-4 [28]): 2.87 µM
CC50 (786-0 [29]): 68 µM
CC50 (CCRF-CEM [30]): > 100 µM
GI50 (OVCAR-3): 2.57 µM
GI50 (MDA-MB-231 [31]): 2.56 µM
TGI (UACC-257): 37 µM
TGI (SR [32]): 2.65 µM
TGI (HCT-116): 10.6 µM
TGI (OVCAR-8): > 100 µM
GI50 (SN12C): 16 µM
TGI (Malme-3M [33]): 23.4 µM
TGI (UACC-62 [34]): 21.5 µM
TGI (SK-MEL-5): 10.2 µM
CC50 (UACC-62 [35]): 59.8 µM
CC50 (BT-549 [36]): > 100 µM
CC50 (SF-539 [37]): 35 µM
